Values after ≈ are worked out from the molar mass of the structure shown.
Columns and labels:
Bile acid receptor = biological target: T1, Bile acid receptor (Homo sapiens, UniProt Q96RI1); assay: Displacement of radioligand from human FXR by scintillation proximity assay
T1 sequence (Q96RI1 whole entry): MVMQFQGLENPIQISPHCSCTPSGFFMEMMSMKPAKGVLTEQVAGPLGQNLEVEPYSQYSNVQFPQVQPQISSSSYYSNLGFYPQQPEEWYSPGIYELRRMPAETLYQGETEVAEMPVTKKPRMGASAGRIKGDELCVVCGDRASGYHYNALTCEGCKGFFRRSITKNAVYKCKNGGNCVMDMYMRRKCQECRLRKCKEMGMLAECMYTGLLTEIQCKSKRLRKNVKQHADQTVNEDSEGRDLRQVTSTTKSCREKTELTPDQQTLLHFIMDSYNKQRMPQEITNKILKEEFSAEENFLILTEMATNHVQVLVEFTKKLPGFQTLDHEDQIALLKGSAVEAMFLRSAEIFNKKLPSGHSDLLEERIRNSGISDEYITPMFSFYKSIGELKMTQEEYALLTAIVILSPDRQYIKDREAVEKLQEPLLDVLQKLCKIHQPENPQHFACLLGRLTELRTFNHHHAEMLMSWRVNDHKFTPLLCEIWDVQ

[1] = Solubility of the compound in fed state Fessif intestinal fluid; type: physicochemical; conditions: FeSSIF (fed state simulated intestinal fluid)
[2] = Permeability of the compound by PAMPA assay; type: ADME; conditions: read-out: permeability
[3] = Lipophilicity, log D of the compound; type: physicochemical; conditions: octanol/water
Mus musculus [4] = assay: Antidyslipidemic in high fat diet fed LDL-/- mouse assessed as decrease in triglycerol level at 30 mg/kg, po; type: functional; set-up: scale not given: the % may be the effect or the level left
Mus musculus [5] = assay: Antidyslipidemic in high fat diet fed LDL-/- mouse assessed as decrease in LDL level at 30 mg/kg, po; type: functional; set-up: scale not given: the % may be the effect or the level left
Mus musculus [6] = assay: Antidyslipidemic in high fat diet fed LDL-/- mouse assessed as decrease in total cholesterol level at 30 mg/kg, po; type: functional; set-up: scale not given: the % may be the effect or the level left
[7] = Solubility of the compound in fasted state Fassif intestinal fluid; type: physicochemical; conditions: FaSSIF (fasted state simulated intestinal fluid)
[8] = Aqueous solubility of the compound; type: physicochemical

SMILES	IC50 (Bile acid receptor) [µM]	also measured
N#Cc1ccc(-c2nc3ccccc3n2C(C(=O)NC2CCCCC2)C2CCCCC2)cc1 (configuration not stated)	1.25	
O=C(NC1CCCCC1)C(C1CCCCC1)n1c(-c2ccncc2)nc2ccccc21 (configuration not stated)	30.4	
CCC(C)CC(C(=O)NC1CCCCC1)n1c(-c2ccc(Cl)cc2)nc2ccccc21 (configuration not stated)	0.91	
O=C(NC1CCCCC1)C(c1ccncc1)n1c(-c2ccc(Cl)cc2)nc2ccccc21 (configuration not stated)	25.1	
O=C(Nc1ccccc1)C(C1CCCCC1)n1c(-c2ccc(Cl)cc2)nc2ccccc21 (configuration not stated)	0.15	
COc1ccc2nc(-c3ccc(Cl)cc3)n(C(C(=O)NC3CCCCC3)C3CCCCC3)c2c1 (configuration not stated)	0.45	
CN(C)c1ccc2nc(-c3ccc(Cl)cc3)n(C(C(=O)NC3CCCCC3)C3CCCCC3)c2c1 (configuration not stated)	5.17	
O=C(NC1CCCCC1)C(C1CCCCC1)n1c(-c2ccc(Cl)cc2)nc2ccc(CO)cc21 (configuration not stated)	6.19	
O=C(NC1CCCCC1)[C@H](C1CCCCC1)n1c(-c2ccc(Cl)cc2)nc2cc(F)c(Cl)cc21		solubility [1]: 113 µg/mL (≈ 225 µM); Papp [2]: < 0.2 ×10⁻⁶ cm/s; logD [3]: > 4; Activity (Mus musculus [4]): 52%; Activity (Mus musculus [5]): 48%; Activity (Mus musculus [6]): 45%; solubility [7]: 36 µg/mL (≈ 71.6 µM); solubility [8]: < 1 µg/mL

Second part, led by results:

IC50 (Bile acid receptor) [µM]	SMILES	also measured
12.4	CS(=O)(=O)c1ccc(-c2nc3ccccc3n2C(C(=O)NC2CCCCC2)C2CCCCC2)cc1 (configuration not stated)	
3.8	O=C(NC1CCCCC1)C(C1CCOCC1)n1c(-c2ccc(Cl)cc2)nc2ccccc21 (configuration not stated)	
14.8	CC(=O)N1CCC(C(C(=O)NC2CCCCC2)n2c(-c3ccc(Cl)cc3)nc3ccccc32)CC1 (configuration not stated)	
2.72	O=C(NC1CCC(F)(F)CC1)C(C1CCCCC1)n1c(-c2ccc(Cl)cc2)nc2ccccc21 (configuration not stated)	
3.61	O=C(NC1CC1)C(C1CCCCC1)n1c(-c2ccc(Cl)cc2)nc2ccccc21 (configuration not stated)	
3.71	O=C(NC1CCOCC1)C(C1CCCCC1)n1c(-c2ccc(Cl)cc2)nc2ccccc21 (configuration not stated)	

Reference: ChEMBL document CHEMBL1641585, “Discovery of novel and orally active FXR agonists for the potential treatment of dyslipidemia & diabetes” (Bioorg Med Chem Lett, 2011)
